Results: patent publication US20130183257A1, “COMPOSITIONS AND METHODS FOR IMPROVING SKIN APPEARANCE” (SYTHEON LTD., priority 2009, published 2013)
Marks after values point to notes of the source that are not given here.

Test: Solubility study of solid ingredients in DOI and co-solvent
Type: physicochemical
Method: Noting the surprising ease with which the various phases incorporating the DOI were prepared, a study was conducted to evaluate whether the DOI was acting as or solvent for or aiding in the solubility of certain of the solid ingredients with which it was combined. In this particular evaluation, the solubility of two solid sunscreen actives, butyl methoxydibenzoylmethane (avobenzone) and benzophenone-3 (“BP3”), and another solid cosmetic active, hexylresorcinol (“HR”) were evaluated in DOI. Additionally, the solubility of avobenzone was further evaluated in C12-C15 alkylbenzoate (“AB”) and in the combination of DOI and C12-C15 alkylbenzoate (70:30)—avobenzone being the sunscreen active and C12-C15 alkylbenzoate a co-solvent of the Sunscreen Formulation of Example 5C above. Each solution was prepared by warming 10 grams of the solvents to ˜45° C., adding the avobenzone and stirring the mixture for at least 20 min to make sure the all of the solid is solubilized. The solutions were then allowed to stand at room temp (˜25 C) and then visually examined for signs of crystal formation at 18 hours and 24 hours. Percent solubility was then calculated.

[1] = room temp (~25 C), visual examination

C12-C15 alkylbenzoate [AB]
Solubility of Avobenzone in the solvent (dissolved at ~45° C., standing at room temp (~25 C)): 23%* | Avobenzone crystal formation, 18 hours [1]: yes | Avobenzone crystal formation, 24 hours [1]: yes
